# Reference: patent US10987359B2, “Oxadiazepinone derivatives and methods of treating hepatitis B infections” (priority 2016, dated 2021)
# pEC50: −log10 of the molar value.
# System: HBV
# Experiment: HBV replication inhibition assay (BDNA assay) in HepG2.2.15 cells
# Assay type: cell-based
# Conditions: HBV replication assay (BDNA assay), HepG2.2.15 cells; read-out: DNA EC50
# Procedure, shortened: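 Supernatant encapsidated HBV DNA was measured by bDNA after DNase digestion and proteinase K release. Stably HBV-integrated HepG2.2.15 cells had two 3-day compound exposures (0.5% DMSO). Signals were background-subtracted and normalized to DMSO wells, and EC50 was obtained by four-parameter fit.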
row,Structure (SMILES),pEC50
1,"C[C@@H]1Cc2nn3c(c2CN1C(=O)Nc1ccc(F)c(C#N)c1F)C(=O)N(C)OC(C(=O)N(C)CC(F)F)C3 (stereo in doubt) [Compound 153_D1, (4S*,9R)—N10-(3-cyano-2,4-difluorophenyl)-N4-(2,2-difluoroethyl)-N4,2,9-trimethyl-1-oxo-1,4,5,8,9,11-hexahydropyrido[4′,3′:3,4]pyrazolo[5,1-d][1,2,5]oxadiazepine-4,10(2H)-dicarboxamide]",6.30 to 7.00
2,"CNC(=O)C1Cn2nc3c(c2C(=O)N(C)O1)CN(C(=O)Nc1cc(Cl)c(F)cc1F)[C@H](C)C3 (stereo in doubt) [Compound 111_D2, (4R*,9R)—N10-(5-chloro-2,4-difluorophenyl)-N4,2,9-trimethyl-1-oxo-1,4,5,8,9,11-hexahydropyrido[4′,3′:3,4]pyrazolo[5,1-d][1,2,5]oxadiazepine-4,10(2H)-dicarboxamide]",7.00 to 9.00

# Same assay, conditions: Hepatitis B virus, HepG2.2.15, HBV replication assay (BDNA assay), HepG2.2.15 cells; read-out: DNA EC50
row,Structure (SMILES),pEC50
1,"C[C@@H]1Cc2nn3c(c2CN1C(=O)Nc1cc(Cl)c(F)cc1F)C(=O)N(C)OC(CO)C3 (stereo in doubt) [Compound 090_E1, (4S*,9R)—N-(5-chloro-2,4-difluorophenyl)-4-(hydroxymethyl)-2,9-dimethyl-1-oxo-1,4,5,8,9,11-hexahydropyrido[4′,3′:3,4]pyrazolo[5,1-d][1,2,5]oxadiazepine-10(2H)-carboxamide]",7.00 to 9.00
2,"CCC(O)C1=NN(C)C(=O)c2c3c(nn2C1)CCN(C(=O)Nc1ccc(F)c(Cl)c1)C3 (centres unmarked) [Compound 229, N-(3-chloro-4-fluorophenyl)-4-(1-hydroxypropyl)-2-methyl-1-oxo-1,2,5,8,9,11-hexahydro-10H-pyrido[4′,3′:3,4]pyrazolo[5,1-d][1,2,5]triazepine-10-carboxamide]",6.30 to 7.00
3,"CN1OC(CO)Cn2nc3c(c2C1=O)CN(C(=O)Nc1ccc(Cl)c(C(F)(F)F)c1)CC3 (centres unmarked) [Compound 025, N-(4-chloro-3-(trifluoromethyl)phenyl)-4-(hydroxymethyl)-2-methyl-1-oxo-1,4,5,8,9,11-hexahydropyrido[4′,3′:3,4]pyrazolo[5,1-d][1,2,5]oxadiazepine-10(2H)-carboxamide]",7.00 to 9.00
4,"C[C@@H]1Cc2nn3c(c2CN1C(=O)Nc1ccc(F)c(C#N)c1)C(=O)N(C)OC(COCC(F)F)C3 (stereo in doubt) [Compound 124_D1, (4S*,9R)—N-(3-cyano-4-fluorophenyl)-4-((2,2-difluoroethoxy)methyl)-2,9-dimethyl-1-oxo-1,4,5,8,9,11-hexahydropyrido[4′,3′:3,4]pyrazolo[5,1-d][1,2,5]oxadiazepine-10(2H)-carboxamide]",7.00 to 9.00
5,"Cc1cc(NC(=O)N2Cc3c(nn4c3C(=O)N(C)OC(CO)C4)C[C@H]2C)ccc1F (single isomer, unassigned) [Compound 083_E1, (4S*,9R)—N-(4-fluoro-3-methylphenyl)-4-(hydroxymethyl)-2,9-dimethyl-1-oxo-1,4,5,8,9,11-hexahydropyrido[4′,3′:3,4]pyrazolo[5,1-d][1,2,5]oxadiazepine-10(2H)-carboxamide]",7.00 to 9.00
6,"CN1OC(CO)Cn2nc3c(c2C1=O)CN(C(=O)Nc1cc(Cl)c(Cl)cc1F)CC3 (centres unmarked) [Compound 027, N-(4,5-dichloro-2-fluorophenyl)-4-(hydroxymethyl)-2-methyl-1-oxo-1,4,5,8,9,11-hexahydropyrido[4′,3′:3,4]pyrazolo[5,1-d][1,2,5]oxadiazepine-10(2H)-carboxamide]",7.00 to 9.00
7,"CN1OC(CNC(=O)OC2CC2)Cn2nc3c(c2C1=O)CN(C(=O)Nc1ccc(F)c(Cl)c1)CC3 (centres unmarked) [Compound 203, cyclopropyl ((10-((3-chloro-4-fluorophenyl)carbamoyl)-2-methyl-1-oxo-1,2,4,5,8,9,10,11-octahydropyrido[4′,3′:3,4]pyrazolo[5,1-d][1,2,5]oxadiazepin-4-yl)methyl)carbamate]",7.00 to 9.00
8,"CCN1OC(CO)Cn2nc3c(c2C1=O)CN(C(=O)Nc1ccc(F)c(Cl)c1)CC3 (single isomer, unassigned) [Compound 060_E1, (S*)—N-(3-chloro-4-fluorophenyl)-2-ethyl-4-(hydroxymethyl)-1-oxo-1,4,5,8,9,11-hexahydropyrido[4′,3′:3,4]pyrazolo[5,1-d][1,2,5]oxadiazepine-10(2H)-carboxamide]",7.00 to 9.00
9,"C[C@@H]1Cc2nn3c(c2CN1C(=O)Nc1ccc(F)c(Cl)c1)C(=O)N(C)OC(CN(C)C)C3 (stereo in doubt) [Compound 093_D2, (4R*,9R)—N-(3-chloro-4-fluorophenyl)-4-((dimethylamino)methyl)-2,9-dimethyl-1-oxo-1,4,5,8,9,11-hexahydropyrido[4′,3′:3,4]pyrazolo[5,1-d][1,2,5]oxadiazepine-10(2H)-carboxamide]",7.00 to 9.00
10,"CC1=NN(C)C(=O)c2c3c(nn2C1)CCN(C(=O)Nc1ccc(F)c(Cl)c1)C3 [Compound 232, N-(3-chloro-4-fluorophenyl)-2,4-dimethyl-1-oxo-1,2,5,8,9,11-hexahydro-10H-pyrido[4′,3′:3,4]pyrazolo[5,1-d][1,2,5]triazepine-10-carboxamide]",7.00 to 9.00
11,"CN1OC(CO)Cn2nc3c(c2C1=O)CN(C(=O)Nc1ccc(F)c(Br)c1)CC3 (single isomer, unassigned) [Compound 032_E1, (S*)—N-(3-bromo-4-fluorophenyl)-4-(hydroxymethyl)-2-methyl-1-oxo-1,4,5,8,9,11-hexahydropyrido[4′,3′:3,4]pyrazolo[5,1-d][1,2,5]oxadiazepine-10(2H)-carboxamide]",7.00 to 9.00
12,"C[C@@H]1Cc2nn3c(c2CN1C(=O)Nc1ccc(F)c(C(F)(F)F)c1)C(=O)N(C)OC(CNS(C)(=O)=O)C3 (single isomer, unassigned) [Compound 179_D1, (4 S*,9R)—N-(4-fluoro-3-(trifluoromethyl)phenyl)-2,9-dimethyl-4-(methylsulfonamidomethyl)-1-oxo-1,4,5,8,9,11-hexahydropyrido[4′,3′:3,4]pyrazolo[5,1-d][1,2,5]oxadiazepine-10(2H)-carboxamide]",7.00 to 9.00
13,"Cc1cc(NC(=O)N2CCc3nn4c(c3C2)C(=O)N(C)OC(CO)C4)ccc1F (single isomer, unassigned) [Compound 035_E1, (S*)—N-(4-fluoro-3-methylphenyl)-4-(hydroxymethyl)-2-methyl-1-oxo-1,4,5,8,9,11-hexahydropyrido[4′,3′:3,4]pyrazolo[5,1-d][1,2,5]oxadiazepine-10(2H)-carboxamide]",7.00 to 9.00
14,"CN1OC(CNC(=O)OCC(F)(F)F)Cn2nc3c(c2C1=O)CN(C(=O)Nc1ccc(F)c(Cl)c1)CC3 (centres unmarked) [Compound 207, 2,2,2-trifluoroethyl ((10-((3-chloro-4-fluorophenyl)carbamoyl)-2-methyl-1-oxo-1,2,4,5,8,9,10,11-octahydropyrido[4′,3′:3,4]pyrazolo[5,1-d][1,2,5]oxadiazepin-4-yl)methyl)carbamate]",7.00 to 9.00
15,"CC(=O)NCC1Cn2nc3c(c2C(=O)N(C)O1)CN(C(=O)Nc1ccc(F)c(Br)c1)CC3 (single isomer, unassigned) [Compound 171_E1, (S*)-4-(acetamidomethyl)-N-(3-bromo-4-fluorophenyl)-2-methyl-1-oxo-1,4,5,8,9,11-hexahydropyrido[4′,3′:3,4]pyrazolo[5,1-d][1,2,5]oxadiazepine-10(2H)-carboxamide]",7.00 to 9.00
